Data reported in patent US20230192700A1, “PYRAZOLOPYRAZINES ACTING ON CANCERS VIA INHIBITION OF CDK12” (Bayer Aktiengesellschaft, priority 2020, published 2023).
Like-named read-outs stand apart in the source and are kept apart here.

What was measured:
[1] = test system: BRCA1 mRNA expression in MDA-MB-231 cells; test: qRT-PCR assay: inhibition of BRCA1 mRNA expression in MDA-MB-231 cells; format: cell-based, human; details: 24 h exposure, BRCA1 mRNA normalised to GAPDH, median, read-out: RTqPCR-MDA-MB-231 IC50 [mol/l] BRCA1 (median)
Protocol: 3. qRT-PCR Assay: BRCA1, ATR, MCL1 in MDA-MB-231, CAL-120
Tissue cultured human MDA-MB-231 human breast cancer cells were plated in 500 microL per well at 200,000 cells/well in a 24 well microtiter plate. After 24 h, the cells were exposed continuously for 24 h to test substances (substances were added with Tecan HP D300 Dispenser). RNA was prepared using Qiagen RNeasy MiniKit (#74106), RNA was quantified using a NanoDrop Equipment, and 600 nano gamms of RNA was coverted to cDNA using a SuperScript VILO kit (Thermofisher #11755050) followed by qPCR amplification. BRCA1 and ATR gene expression was measured by RT-qPCR and normalised to GAPDH housekeeping gene expression. qPCR primer sets have been purchased from Thermo Fisher Scientific/Applied Biosystems: BRCA1, # Hs 01556193; ATR, #Hs 00992123; GAPDH, #Hs 03929097.

[2] = test system: MDA-MB-231 human breast cancer cells; test: Proliferation assay MDA-MB-231 (crystal violet); format: cell-based; details: MDA-MB-231 cells, 4 days, median, read-out: Prolif-MDA MB231 IC50 - [mol/l] (median)
Protocol: 4. Proliferation assay: MDA-MB-231, CAL-120
Human tumour cells were originally obtained from the American Type Culture Collection (ATCC), or from the Deutsche Sammlung von Mikroorganismen and Zellkulturen (DSMZ, German Collection of Microorganisms and Cell Cultures). Cultivated tumour cells (CAL-120, human breast adenocarcinoma cells, DSMZ ACC-459; MDA-M B-231, human breast cancer cells, ATCC HTB-26) were plated at a density of 4,000 cells/well in a 96-well multititer plate in 200 microL of their respective growth medium supplemented 10% fetal calf serum. After 24 hours, the cells of one plate (zero-point plate) were stained with crystal violet (see below), while the medium of the other plates was supplemented with the test substances in various concentrations (0 micromol/L, as well as in the range of 0.01-10 micromol/L; the final concentration of the solvent dimethyl sulfoxide was adjusted to 0.1%) using a Tecan HP D300 Digital Dispenser. The cells were incubated for 4 days in the presence of test substances. Cell proliferation was determined by staining the cells with crystal violet: the cells were fixed by adding 20 microL/measuring point of an 11% glutaric aldehyde solution for 15 minutes at room temperature. After three washing cycles of the fixed cells with water, the plates were dried at room temperature. The cells were stained by adding 100 microL/measuring point of a 0.1% crystal violet solution (pH 3.0). After three washing cycles of the stained cells with water, the plates were dried at room temperature. The dye was dissolved by adding 100 microL/measuring point of a 10% acetic acid solution. The extinction was determined by photometry at a wavelength of 595 nm. The change of cell number, in percent, was calculated by normalization of the measured values to the extinction values of the zero-point plate(=0%) and the extinction of the untreated (0 μM) cells(=100%). The IC50 values (inhibitory concentration at 50% of maximal effect) were determined by means of a 4 parameter fit.

Structure (SMILES)	IC50 ([1]; Homo sapiens, MDA-MB-231, 24 h) [nM]	IC50 ([2]; Homo sapiens, MDA-MB-231, 96 h) [nM]	IC50 [2] [nM]	IC50 [1] [nM]
O[C@H]1CC[C@H](n2nc(NCc3nc4ccccc4[nH]3)c3ncc(C4CC4)nc32)CC1 [Example 50, trans-4-(3-{[(1H-benzimidazol-2-yl)methyl]amino}-6-cyclopropyl-1H-pyrazolo[3,4-b]pyrazin-1-yl)cyclohexan-1-ol]	17.5	15	–	–
Cc1cccc2[nH]c(CNc3nn(C4CCOCC4)c4nc(C5CC5)cnc34)nc12 [Example 33, 6-cyclopropyl-N-[(4-methyl-1H-benzimidazol-2-yl)methyl]-1-(oxan-4-yl)-1H-pyrazolo[3,4-b]pyrazin-3-amine]	16.9	37	–	–
CN1CCC(n2nc(NCc3nc4cc(F)ccc4[nH]3)c3ncc(C4CC4)nc32)CC1 [Example 4, 6-cyclopropyl-N-[(5-fluoro-1H-benzimidazol-2-yl)methyl]-1-(1-methylpiperidin-4-yl)-1H-pyrazolo[3,4-b]pyrazin-3-amine]	17.1	51.3	–	–
c1ccc2[nH]c(CNc3nn(C4C[C@H]5CC[C@@H](C4)O5)c4nc(C5CC5)cnc34)nc2c1 (stereo partly drawn) [Example 45, exo/endo-N-[(1H-benzimidazol-2-yl)methyl]-6-cyclopropyl-1-(8-oxabicyclo[3.2.1]octan-3-yl)-1H-pyrazolo[3,4-b]pyrazin-3-amine]	7.6	16.8	–	–
Fc1ccc2[nH]c(CNc3nn(C4CCOCC4)c4nc(C5CC5)cnc34)nc2c1 [Example 53, 6-cyclopropyl-N-[(5-fluoro-1H-benzimidazol-2-yl)methyl]-1-(oxan-4-yl)-1H-pyrazolo[3,4-b]pyrazin-3-amine]	10.9	23.3	–	–
CN1CCCC(n2nc(NCc3nc4ccccc4[nH]3)c3ncc(C4CC4)nc32)CC1 (racemic) [Example 34, (±)-N-[(1H-benzimidazol-2-yl)methyl]-6-cyclopropyl-1-(1-methylazepan-4-yl)-1H-pyrazolo[3,4-b]pyrazin-3-amine]	22.5	38.8	–	–
CN1CCC(n2nc(NCc3nc4ccccc4[nH]3)c3ncc(C4CC4)nc32)C1 (single isomer, unassigned) [Example 78, (+) or (−)-N-[(1H-benzimidazol-2-yl)methyl]-6-cyclopropyl-1-(1-methylpyrrolidin-3-yl)-1H-pyrazolo[3,4-b]pyrazin-3-amine]	15.6	–	34.7	–
O[C@H]1C[C@H](n2nc(NCc3nc4ccccc4[nH]3)c3ncc(C4CC4)nc32)C1 [Example 43, trans-3-(3-{[(1H-benzimidazol-2-yl)methyl]amino}-6-cyclopropyl-1H-pyrazolo[3,4-b]pyrazin-1-yl)cyclobutan-1-ol]	28.9	62.2	–	–
CN1CCC(n2nc(NCc3nc4cc(Cl)ccc4[nH]3)c3ncc(C4CC4)nc32)CC1 [Example 22, N-[(5-chloro-1H-benzimidazol-2-yl)methyl]-6-cyclopropyl-1-(1-methylpiperidin-4-yl)-1H-pyrazolo[3,4-b]pyrazin-3-amine]	9.36	8.02	–	–
CN1CCC(n2nc(NCc3nc4c(Br)cccc4[nH]3)c3ncc(C4CC4)nc32)CC1 [Example 20, N-[(4-bromo-1H-benzimidazol-2-yl)methyl]-6-cyclopropyl-1-(1-methylpiperidin-4-yl)-1H-pyrazolo[3,4-b]pyrazin-3-amine]	20.6	14.4	–	–
OC[C@H]1C[C@@H](n2nc(NCc3nc4ccccc4[nH]3)c3ncc(C4CC4)nc32)C1 [Example 47, [cis-3-(3-{[(1H-benzimidazol-2-yl)methyl]amino}-6-cyclopropyl-1H-pyrazolo[3,4-b]pyrazin-1-yl)cyclobutyl]methanol]	13.8	50.8	–	–
CC1CC(n2nc(NCc3nc4ccccc4[nH]3)c3ncc(C4CC4)nc32)CCO1 (racemic) [Example 44, (±)-cis/trans-N-[(1H-benzimidazol-2-yl)methyl]-6-cyclopropyl-1-(2-methyloxan-4-yl)-1H-pyrazolo[3,4-b]pyrazin-3-amine]	24.2	37.9	–	–
CN1CCC(n2nc(NCc3nc4c(Cl)c(F)ccc4[nH]3)c3ncc(C4CC4)nc32)CC1 [Example 31, N-[(4-chloro-5-fluoro-1H-benzimidazol-2-yl)methyl]-6-cyclopropyl-1-(1-methylpiperidin-4-yl)-1H-pyrazolo[3,4-b]pyrazin-3-amine]	4.99	18.2	–	–
Cc1c(F)ccc2[nH]c(CNc3nn(C4CCN(C)CC4)c4nc(C5CC5)cnc34)nc12 [Example 26, 6-cyclopropyl-N-[(5-fluoro-4-methyl-1H-benzimidazol-2-yl)methyl]-1-(1-methylpiperidin-4-yl)-1H-pyrazolo[3,4-b]pyrazin-3-amine]	20	22.2	–	–
CN1CCC(n2nc(NCc3nc4ccccc4[nH]3)c3ncc(C4CC4)nc32)C1 (racemic) [Example 35, (±)-N-[(1H-benzimidazol-2-yl)methyl]-6-cyclopropyl-1-(1-methylpyrrolidin-3-yl)-1H-pyrazolo[3,4-b]pyrazin-3-amine]	30.2	59.5	–	–
OC[C@H]1C[C@H](n2nc(NCc3nc4ccccc4[nH]3)c3ncc(C4CC4)nc32)C1 [Example 46, [trans-3-(3-{[(1H-benzimidazol-2-yl)methyl]amino}-6-cyclopropyl-1H-pyrazolo[3,4-b]pyrazin-1-yl)cyclobutyl]methanol]	4.02	47.2	–	–
Cc1ccc2[nH]c(CNc3nn(C4CCN(C)CC4)c4nc(C5CC5)cnc34)nc2c1C [Example 28, 6-cyclopropyl-N-[(4,5-dimethyl-1H-benzimidazol-2-yl)methyl]-1-(1-methylpiperidin-4-yl)-1H-pyrazolo[3,4-b]pyrazin-3-amine]	16.8	19.9	–	–
CN1CCCC(n2nc(NCc3nc4ccccc4[nH]3)c3ncc(C4CC4)nc32)CC1 (single isomer, unassigned) [Example 38, (−) or (+)-N-[(1H-benzimidazol-2-yl)methyl]-6-cyclopropyl-1-[(4R*)-1-methylazepan-4-yl]-1H-pyrazolo[3,4-b]pyrazin-3-amine]	–	–	46.5	21.8
CN1CCC(n2nc(NCc3nc4cc(C(F)(F)F)ccc4[nH]3)c3ncc(C4CC4)nc32)CC1 [Example 25, 6-cyclopropyl-1-(1-methylpiperidin-4-yl)-N-{[5-(trifluoromethyl)-1H-benzimidazol-2-yl]methyl}-1H-pyrazolo[3,4-b]pyrazin-3-amine]	5.88	5.07	–	–
Fc1cccc2[nH]c(CNc3nn(C4CCOCC4)c4nc(C5CC5)cnc34)nc12 [Example 23, 6-cyclopropyl-N-[(4-fluoro-1H-benzimidazol-2-yl)methyl]-1-(oxan-4-yl)-1H-pyrazolo[3,4-b]pyrazin-3-amine]	30.9	28.6	–	–
c1ccc2[nH]c(CNc3nn(C4CCOC4)c4nc(C5CC5)cnc34)nc2c1 (single isomer, unassigned) [Example 17, (+) or (−)-N-[(1H-benzimidazol-2-yl)methyl]-6-cyclopropyl-1-(oxolan-3-yl)-1H-pyrazolo[3,4-b]pyrazin-3-amine]	10.9	137	–	–
c1ccc2[nH]c(CNc3nn(C4CCOC4)c4nc(C5CC5)cnc34)nc2c1 (single isomer, unassigned) [Example 18, (-) or (+) -N-[(1H-benzimidazol-2-yl)methyl]-6-cyclopropyl-1-[oxolan-3-yl]-1H-pyrazolo[3,4-b]pyrazin-3-amine]	–	–	151	> 10.7
Cn1nc(NCc2nc3ccccc3[nH]2)c2ncc(C3CC3)nc21 [Example 15, N-[(1H-benzimidazol-2-yl)methyl]-6-cyclopropyl-1-methyl-1H-pyrazolo[3,4-b]pyrazin-3-amine]	131	–	–	–
